Measured values: ChEMBL document CHEMBL5335850, “Isolation of Paraphaeoketones: A Plausible Biosynthetic Explanation for Paraphaeolactones via a Benzilic Acid Rearrangement Rather than a Favorskii Rearrangement” (J Nat Prod, 2024)
The source made the active and inactive calls. The rule behind the calls is not given here.

What was measured:
Bipolaris oryzae = experiment: Antifungal activity against Bipolaris oryzae assessed as inhibition of fungal growth incubated for 5 days by paper disk method; type: functional, organism-based; details: time 5.0 day
COLO 201 = experiment: Cytotoxicity against human COLO201 cells assessed as inhibition of cell proliferation incubated for 24 hrs by WST-1 reagent based titer-plate reader assay; type: functional

CC1C2CC3(O)OC(C)(O2)C(=O)C1C3O (stereo unspecified)
Activity (Bipolaris oryzae): inactive
Activity (COLO 201): inactive

CC1C=CC2(O)CC(=O)C(=O)C1C2O (stereo unspecified)
Activity (Bipolaris oryzae): inactive
Activity (COLO 201): inactive

C[C@@H]1C=C[C@@]2(O)[C@H](O)[C@@H]1C(=O)[C@]1(O)O[C@H]3C(=O)[C@@H]4[C@H](C)C=C[C@](O)([C@H]3[C@H]21)[C@@H]4O
Activity (Bipolaris oryzae): inactive
Activity (COLO 201): inactive
